The source of these data is patent publication US9926293B2, “Multivalent RAS binding compounds” (THE TRUSTEES OF COLUMBIA UNIVERSITY IN THE CITY OF NEW YORK, priority 2014, dated 2018).

For one data set, the target named is T1, GppNHp-loaded KRASG12D (Homo sapiens, UniProt P01116, G12D).
T1 construct: made in house; host or cells: Escherichia coli BL21-Gold (DE3)
Briefly: Microscale thermophoresis, lysine NT-647-labeled GppNHp-loaded KRAS^G12D. Type of data set: binding. The settings on record: read-out: dissociation constant KD. The protocol: Microscale Thermophoresis
KRAS^G12D (250 μM) in 25 mM HEPES, 100 mM sodium chloride, 2 mM TCEP with 20 mM EDTA and 1 mM GppNHp was shaken at 220 rpm at 30° C. to remove the endogenous nucleotide, The solution was placed on ice for 2 minutes prior to the addition of 65 mM MgCl2. After an additional 10 minutes incubation on ice, 200 uL of a 10 uM solution of KRAS^G12D was combined with 200 uL of a 20 uM solution of NT-647-NHS-ester dye (from a 652.4 μM stock). The protein/dye mixture was rotated at 4° C. for 30 minutes, before being separated from the excess dye and buffer exchanged into 25 mM Tris, 100 mM sodium chloride, 2 mM TCEP, and 5 mM MgCl2 via a nap-5 column. The test compounds were arrayed across a 16-point dilution series consisting of 1.5% DMSO with 25 mM Tris, 100 mM NaCl, 2 mM TCEP, 5 mM MgCl2 and 0.05% tween-20. Thermophoretic movement of the fluorescently labeled protein with the inhibitors was performed using a Monolith NT.115 (Nanotemper Technologies). RALA and RHOA were purchased commercially from Abcam (RALA CN:ab102555, RHOA CN:ab101594).
In another set of experiments, the top D38-A59 two-site multivalent compounds were evaluated by a RAS pulldown using the RAS binding domain of CRAF (the top two hits are shown in FIG. 14D). This abrogation of binding between RAS and its effector protein was also evident in the RAS-RALGDS interaction (FIG. 14E). To quantify the binding of the two-site compounds to RAS, MST was performed again using lysine NT-647-labeled, GppNHp-loaded KRAS^G12D. […] The third (Y32) site was extended into (compound 34MEW95) using this scaffold.
Docking scores and dissociation constants for binding to GppNHp-bound KRAS^G12D (PDB:4DSN) were measured as set forth above for additional 2- and 3-site compounds by microscale thermophoresis.
On the technique in general: Microscale thermophoresis detects binding through changes in fluorescence in a small temperature gradient.

Data set [1] deals with caspases 3 and 7 in HT-1080 (NRAS^Q61K) cells. Briefly: Caspase 3/7 activation assay. Type of data set: cell-based. The settings on record: staurosporine 5 μM, 24 hours. The procedure: Caspase 3/7 Activation Assay
HT-1080 cells were seeded into 384-well plates at 1,000 cells/well. After 12-16 hours, compounds (as 50 mM stocks in DMSO) were arrayed in a dilution series in 384-well polypropylene plates. Compound solutions were transferred at a 1:5 dilution into the assay plates for a total volume of 40 μL. After 24 hours, 8 μL of a 1:100 solution of rhodamine 110 bis-(N-CBZ-1-aspartyl-1-glutamyl-1-valyl-aspartic acid amide) to lysis buffer (APO-1, Promega) was added and the plate was wrapped in aluminum foil and incubated at room temperature for 16 hours. Fluorescence intensity was then determined using a Victor3 plate reader (Perkin Elmer) with a 490 nm excitation filter and a 535 nm emission filter. A viability curve was performed in parallel with the same incubation time using the procedure described in the “cell viability assays” section.

Data set [2] in a line: Aqueous solubility as noted during MST. Type of data set: physicochemical. The conditions noted are these: noted in MST buffer.
The subject of a further data set is U2OS (WT). Briefly: Cell viability assay (384-well, Alamar blue). Type of data set: cell-based. The settings on record: Homo sapiens, Table 7, 48 hours, 8-point dilution series. The protocol:
(§1) All cell culture assays were incubated at 37° C., 5% CO2 in media containing Dulbecco's Modified Eagle Medium (DMEM) with 10% fetal bovine serum (FBS) and 1% penicillin-streptomycin (PS). 384-well format for EC50 determination: cells were trypsinized, counted, and seeded into 384-well plates at 1,000 cells/well. After 12-16 hours, compounds (as 50 mM stocks in DMSO) were arrayed in an 8- or 16-point dilution series in 384-well polypropylene plates. Compound solutions were transferred at a 1:5 dilution into the assay plates. After 48 hours, a 50% Alamar blue solution was added to a final concentration of 10% Alamar blue. After 6 hours of incubation, fluorescence intensity was determined using a Victor3 plate reader (Perkin Elmer) with a 535 nm excitation filter and a 590 nm emission filter. All compound measurements were performed in triplicate. For experiments performed in 6-well format, cells were trypsinized, counted, and seeded into 6-well plates at 200,000 cells per well 16 h prior to use. Media was then aspirated and replaced with 2 mL of media containing compounds at the indicated concentrations (from 10 mM stocks in DMSO). After 24 hours, cells were trypsinized and viability was determined using Trypan Blue exclusion assay.
(Alamar Blue is a resazurin reagent that responds to reducing activity.)

Another data set deals with Calu-1 (KRAS G12C). Briefly: Cell viability assay (384-well, Alamar blue). Type of data set: cell-based. The settings on record: Homo sapiens, Calu-1, 48 h. The protocol:
as §1

In another data set the test system is SW480 (KRAS G12V). Briefly: Cell viability assay (384-well, Alamar blue). Type of data set: cell-based. The settings on record: Homo sapiens, SW480, 48 h. The protocol:
as §1

The test system of the next data set is HPAFII (KRAS G12D). Briefly: Cell viability assay (384-well, Alamar blue). It counts as cell-based. The settings on record: Homo sapiens, HPAF-II, 48 h. The protocol:
as §1

The subject of another data set is Panc-1 (KRAS G12D). Briefly: Cell viability assay (384-well, Alamar blue). The conditions noted are these: Homo sapiens, PANC-1, 48 h. It counts as cell-based. The protocol:
as §1

The next data set has as its system BJeLR (HRAS G12V). Briefly: Cell viability assay (384-well, Alamar blue). It counts as cell-based. The settings on record: 48 h. The protocol: as §1
For the next data set, the system named is MDA-MB-231 (KRAS G13D). Briefly: Cell viability assay (384-well, Alamar blue). Type of data set: cell-based. The settings on record: Homo sapiens, MDA-MB-231, 48 h. The procedure:
as §1

The subject of the next data set is BxPC-3 (WT). Briefly: Cell viability assay (384-well, Alamar blue). Type of data set: cell-based. The conditions noted are these: Homo sapiens, Table 7, 48 hours, 8-point dilution series. The procedure: as §1
A further data set concerns MIA Paca-2 (KRAS G12C). Briefly: Cell viability assay (384-well, Alamar blue). It counts as cell-based. The conditions noted are these: Homo sapiens, MIA PaCa-2, 48 h. The protocol:
as §1

The next data set deals with HT1080 (NRAS Q61K). Briefly: Cell viability assay (384-well, Alamar blue). Type of data set: cell-based. The conditions noted are these: Homo sapiens, HT-1080, 48 h. The procedure:
as §1

Setting [3] is: 31MEW44 5 μM, 34MEW43 10 μM, 34MEW95 5 μM.
Where [4] appears, read: Table 7, 8-point dilution series.
[5] abbreviates: Table 8, MDA-MB-231 (KRAS^G13O), 384-well, alamar blue.

Where two headings read alike, the source gives them in different places.

T1 sequence (P01116 1-169 isoform P01116-2 G12D): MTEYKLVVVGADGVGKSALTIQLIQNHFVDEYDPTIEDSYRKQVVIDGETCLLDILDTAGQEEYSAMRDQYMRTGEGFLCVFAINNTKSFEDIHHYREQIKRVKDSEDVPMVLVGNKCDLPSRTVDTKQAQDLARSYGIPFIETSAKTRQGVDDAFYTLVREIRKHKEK

`NC1(C(=O)NCCCn2cc(-c3ccc(OC(F)(F)F)cc3)c3cc(CN4CCN(Cc5c(Cl)cccc5Cl)CC4)ccc32)CCNCC1` [Compound 31MEW44, 4-amino-N-(3-(5-((4-(2,6-dichlorobenzyl)piperazin-1-yl)methyl)-3-(4-(trifluoromethoxy)phenyl)-1H-indol-1-yl)propyl)piperidine-4-carboxamide]: on GppNHp-loaded KRASG12D (MST, GppNHp-loaded KRAS^G12D, 34MEW43 and 34MEW95 estimated, no full dose-response curve), the Kd is 9 µM. For the same compound, the “fluorescence of caspase 3/7 substrate” value is “Increased fluorescence” in [1] (setting [3]); “Increased fluorescence” in data set [1] (31MEW44 2.5 and 5 μM). The aqueous solubility result in [2] was “more soluble”. For the same compound, the EC50 in the data set with U2OS (WT) amounted to 5.03 µM; with Calu-1 (KRAS G12C) (setting [4]), 3.6 µM; in the data set on Calu-1 (KRAS G12C) (Table 8, 384-well, alamar blue), 3.6 µM; with SW480 (KRAS G12V) (setting [4]), 2.18 µM; in the data set on SW480 (KRAS G12V) (Table 8, 384-well, alamar blue), 2.2 µM; in the data set on HPAFII (KRAS G12D) (setting [4]) it was 6.02 µM. Besides, the 50% effective concentration (EC50) with HPAFII (KRAS G12D) (Table 8, 384-well, alamar blue) was 5.2 µM; with Panc-1 (KRAS G12D) (setting [4]), 2.06 µM; in the data set with Panc-1 (KRAS G12D) (Table 8, 384-well, alamar blue) it was 5.1 µM; in the data set with BJeLR (HRAS G12V) (setting [4]) it was 3.95 µM; in the data set on BJeLR (HRAS G12V) (Table 8, 384-well, alamar blue) it was 4 µM; in the data set with MDA-MB-231 (KRAS G13D) (setting [4]), 2.26 µM. For the same compound, the EC50 is 2.3 µM in the data set with MDA-MB-231 (KRAS G13D) (setting [5]); 5.29 µM in the data set on BxPC-3 (WT); 2.81 µM in the data set with MIA Paca-2 (KRAS G12C) (setting [4]); 3.2 µM with MIA Paca-2 (KRAS G12C) (Table 8, 384-well, alamar blue); 2.47 µM with HT1080 (NRAS Q61K) (setting [4]); 1.1 µM in the data set on HT1080 (NRAS Q61K) (Table 8, 384-well, alamar blue).

Turning to `NC1(C(=O)NCCCn2cc(-c3cccc(F)c3)c3c(CN4CCN(CCOc5ccc(Cl)cc5)CC4)cccc32)CCNCC1` [Compound 34MEW43, 4-amino-N-(3-(4-((4-(2-(4-chlorophenoxy)ethyl)piperazin-1-yl)methyl)-3-(3-fluorophenyl)-1H-indol-1-yl)propyl)piperidine-4-carboxamide], the dissociation constant Kd on GppNHp-loaded KRASG12D worked out at 73 µM. Besides, the “fluorescence of caspase 3/7 substrate” value in data set [1] (setting [3]) is recorded as “Increased fluorescence”. In [2], the aqueous solubility result was “low aqueous solubility”. Also, the concentration for a half-maximal effect (EC50) in the data set on U2OS (WT) was 12.3 µM; in the data set with Calu-1 (KRAS G12C) (setting [4]) it was 9.42 µM; in the data set with Calu-1 (KRAS G12C) (Table 8, 384-well, alamar blue), 9.4 µM; in the data set on SW480 (KRAS G12V) (setting [4]) it was 7.06 µM; in the data set with SW480 (KRAS G12V) (Table 8, 384-well, alamar blue) it was 7.1 µM; with HPAFII (KRAS G12D) (setting [4]), 16.4 µM. Besides, the half-maximal effective concentration (EC50) came to 16 µM in the data set on HPAFII (KRAS G12D) (Table 8, 384-well, alamar blue); 5.96 µM in the data set with Panc-1 (KRAS G12D) (setting [4]); 6 µM in the data set with Panc-1 (KRAS G12D) (Table 8, 384-well, alamar blue); 9.71 µM in the data set on BJeLR (HRAS G12V) (setting [4]); 9.7 µM with BJeLR (HRAS G12V) (Table 8, 384-well, alamar blue); 5.63 µM in the data set with MDA-MB-231 (KRAS G13D) (setting [4]). Also, the concentration for a half-maximal effect (EC50) with MDA-MB-231 (KRAS G13D) (setting [5]) came out at 5.6 µM; in the data set with BxPC-3 (WT), 13.1 µM; with MIA Paca-2 (KRAS G12C) (setting [4]) it was 8.45 µM; in the data set on MIA Paca-2 (KRAS G12C) (Table 8, 384-well, alamar blue) it was 8.5 µM; in the data set on HT1080 (NRAS Q61K) (setting [4]), 5.17 µM; with HT1080 (NRAS Q61K) (Table 8, 384-well, alamar blue), 5.2 µM.

For orientation: Kd means a measure of binding affinity in units of concentration. For orientation: EC50 means the concentration giving half of the maximal effect. Read a high EC50 as a need for much substance.
